Test results: BindingDB's records for doi:10.1021/jm101621u (University of Utah, 2011)
Square brackets hold non-standard residues; d marks the D form. Peptide text beside a SMILES is read from it. d(aThr) = C[C@@H](O)[C@@H](N)C(=O)O; Dhb = C/C=C(\N)C(=O)O

Target: Transient receptor potential cation channel subfamily V member 1 (Homo sapiens, UniProt Q8NER1)
Assay: Antagonist activity at human TRPV1 expressed in HEK293 cell assessed as inhibition of capsaicin-induced calcium flux by fluorometric analysis

Chain of Transient receptor potential cation channel subfamily V member 1 (Q8NER1 whole entry): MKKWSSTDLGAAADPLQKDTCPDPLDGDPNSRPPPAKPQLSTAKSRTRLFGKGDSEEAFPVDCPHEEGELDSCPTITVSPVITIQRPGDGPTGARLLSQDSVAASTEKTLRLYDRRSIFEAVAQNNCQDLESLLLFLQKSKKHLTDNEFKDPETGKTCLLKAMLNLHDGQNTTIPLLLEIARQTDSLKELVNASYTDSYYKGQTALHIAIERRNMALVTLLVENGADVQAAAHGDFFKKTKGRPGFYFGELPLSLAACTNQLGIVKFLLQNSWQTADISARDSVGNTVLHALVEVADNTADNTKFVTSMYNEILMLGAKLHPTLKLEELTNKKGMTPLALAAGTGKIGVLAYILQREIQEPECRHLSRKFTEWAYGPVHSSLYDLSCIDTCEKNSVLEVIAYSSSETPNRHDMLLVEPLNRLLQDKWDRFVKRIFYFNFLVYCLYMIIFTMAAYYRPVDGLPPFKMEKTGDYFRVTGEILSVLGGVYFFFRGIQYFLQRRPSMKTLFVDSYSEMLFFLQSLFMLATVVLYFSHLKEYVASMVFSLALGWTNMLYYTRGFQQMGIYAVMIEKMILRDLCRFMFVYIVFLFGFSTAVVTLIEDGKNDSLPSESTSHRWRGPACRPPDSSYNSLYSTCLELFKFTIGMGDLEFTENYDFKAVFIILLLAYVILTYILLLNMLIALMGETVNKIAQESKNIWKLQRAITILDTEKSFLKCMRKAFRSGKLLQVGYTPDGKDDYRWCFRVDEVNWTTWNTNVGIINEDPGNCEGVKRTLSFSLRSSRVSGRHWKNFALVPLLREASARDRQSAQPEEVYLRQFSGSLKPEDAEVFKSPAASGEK

IC50: 1660 µM
SMILES: C/C=C(\NC(=O)[C@H](C)NC(=O)[C@@H](NC(=O)[C@H](NC(=O)[C@H](Cc1ccccc1)NC(=O)[C@@H](CC(C)C)NC(=O)[C@@H](Cc1ccccc1)NC(C)=O)[C@@H](C)O)C(C)C)C(=O)O [Nobilamide A] (Ac-[dF][dL]F[d(aThr)]VA[Dhb]-OH)
